Test results from patent US20250154152A1, “INHIBITORS OF NAEGLERIA FOWLERI” (Wisconsin Alumni Research Foundation, priority 2023, published 2025).

What follows are molecules tested on N. fowleri strain Nf69 (ATCC 30215) trophozoites (assay: Determination of EC50 values against Naegleria fowleri (growth inhibition, CellTiter Glo, 48 h)). Settings: ATCC30215, N. fowleri Nf69 trophozoites, 48 h culture, 37° C., CellTiter Glo luminescence, read-out: EC50 uM against N. fowleri.
Assay type: cell-based
Method: N. fowleri strain Nf69 (ATCC 30215) trophozoites were cultured axenically. Amoeba were seeded at […] in 100 μL of the indicated medium in white TC-treated 96-well plates (Thermo Scientific Nunc Microwell 136101). Cells were seeded into Nelson's Complete Media (NCM, 0.17% liver infusion broth (BD Difco, Franklin Lakes, NJ), 0.17% glucose, 0.012% sodium chloride, 0.0136% potassium phosphate monobasic, 0.0142% sodium phosphate dibasic, 0.0004% calcium chloride, 0.0002% magnesium sulfate, 10% heat-inactivated fetal bovine serum (FBS), 1% penicillin-streptomycin) at 37° C. in 96-well tissue culture plates. Vehicle or compound at concentrations initially ranging from 20 to 0.375 μM were added to cells, followed by culture for 48 h (37° C., 5% CO2). Plates were equilibrated to rt for 15 min and CellTiter Glo reagent was added followed by orbital shaking for 2 min. After an additional incubation (rt, 10 min), luminescence was scored on a BioTek Synergy H1 microplate reader. Luminescence values were used to calculate percent cell growth inhibition (based on controls) for each concentration of compound tested. Averages of triplicates were calculated and fit to dose-response curves for the determination of EC50 values, using Prism 9.0 (GraphPad Software, San Diego, CA). […] Other controls included media alone, cells and media, and vehicle and media. For very potent compounds, concentration of reagent in the dose-response assays were reduced to provide an appropriate range for EC50 value resolution.
Compounds of the present technology were tested for growth inhibition of N. fowleri per General Procedure 13, above.

| SMILES | EC50 [µM] |
| --- | --- |
| O=c1c2cc(Cl)c(Cl)cc2nc2n1CC[C@@H]1[C@@H]2CCCN1Cc1ccc(Cl)cc1 (racemic) [Compound 7t, (±)-(4aR,13bS)-10,11-dichloro-4-(4-chlorobenzyl)-1,2,3,4,4a,5,6,13b-octahydro-8H-[1,6]naphthyridino[5,6-b]quinazolin-8-one] | > 10 |
| O=c1c2cc(Cl)c(Cl)cc2nc2n1CC[C@@H]1[C@@H]2CCCN1Cc1ccc(C(F)(F)F)cc1 (racemic) [Compound 7u, (±)-(4aR,13bS)-10,11-dichloro-4-(4-(trifluoromethyl)benzyl)-1,2,3,4,4a,5,6,13b-octahydro-8H-[1,6]naphthyridino[5,6-b]quinazolin-8-one] | > 10 |
| O=c1c2cc(Cl)c(Cl)cc2nc2n1CC[C@@H]1[C@@H]2CCCN1Cc1ccc(Cl)cc1Cl (racemic) [Compound 7v, (±)-(4aR,13bS)-10,11-dichloro-4-(2,4-dichlorobenzyl)-1,2,3,4,4a,5,6,13b-octahydro-8H-[1,6]naphthyridino[5,6-b]quinazolin-8-one] | > 10 |
| CN1CCC[C@H]2c3nc4ccccc4c(=O)n3CC[C@H]21 (racemic) [cis-5a, (±)-(4aR,13bR)-4-methyl-1,2,3,4,4a,5,6,13b-octahydro-8H-[1,6]naphthyridino[5,6-b]quinazolin-8-one] | > 10 |
| Cc1cccc2nc3n(c(=O)c12)CC[C@@H]1[C@H]3CCCN1C (racemic) [cis-5b, (±)-(4aR,13bR)-4,9-dimethyl-1,2,3,4,4a,5,6,13b-octahydro-8H-[1,6]naphthyridino[5,6-b]quinazolin-8-one] | > 10 |
| CN1CCC[C@H]2c3nc4cccc(Cl)c4c(=O)n3CC[C@H]21 (racemic) [cis-5c, (±)-(4aR,13bR)-9-chloro-4-methyl-1,2,3,4,4a,5,6,13b-octahydro-8H-[1,6]naphthyridino[5,6-b]quinazolin-8-one] | > 10 |
| CN1CC[C@H]2c3nc4ccccc4c(=O)n3CC[C@H]21 (racemic) [cis-5cc, (±)-(3aR,12bR)-3-methyl-2,3,3a,4,5,12b-hexahydropyrrolo[3′,2′:3,4]pyrido[2,1-b]quinazolin-7(1H)-one] | > 10 |
| CN1CCC[C@H]2c3nc4ccc(Cl)cc4c(=O)n3CC[C@H]21 (racemic) [cis-5d, (±)-(4aR,13bR)-10-chloro-4-methyl-1,2,3,4,4a,5,6,13b-octahydro-8H-[1,6]naphthyridino[5,6-b]quinazolin-8-one] | 1 to 10 |
| COc1cccc2c(=O)n3c(nc12)[C@@H]1CCN(C)[C@@H]1CC3 (racemic) [cis-5dd, (±)-(3aR,12bR)-11-methoxy-3-methyl-2,3,3a,4,5,12b-hexahydropyrrolo[3′,2′:3,4]pyrido[2,1-b]quinazolin-7(1H)-one] | > 10 |
| CN1CCC[C@H]2c3nc4ccc(Br)cc4c(=O)n3CC[C@H]21 (racemic) [cis-5e, (±)-(4aR,13bR)-10-bromo-4-methyl-1,2,3,4,4a,5,6,13b-octahydro-8H-[1,6]naphthyridino[5,6-b]quinazolin-8-one] | 0.1 to 1 |
| CN1CC[C@H]2c3nc4cc(F)c(F)cc4c(=O)n3CC[C@H]21 (racemic) [cis-5ee, (±)-(3aR,12bR)-9,10-difluoro-3-methyl-2,3,3a,4,5,12b-hexahydropyrrolo[3′,2′:3,4]pyrido[2,1-b]quinazolin-7(1H)-one] | > 10 |
| CN1CCC[C@H]2c3nc4ccc(F)cc4c(=O)n3CC[C@H]21 (racemic) [cis-5f, (±)-(4aR,13bR)-10-fluoro-4-methyl-1,2,3,4,4a,5,6,13b-octahydro-8H-[1,6]naphthyridino[5,6-b]quinazolin-8-one] | > 10 |
| O=c1c2ccccc2nc2n1CC[C@@H]1[C@H]2CCN1Cc1ccccc1 (racemic) [cis-5ff, (±)-(3aR,12bR)-3-benzyl-2,3,3a,4,5,12b-hexahydropyrrolo[3′,2′:3,4]pyrido[2,1-b]quinazolin-7(1H)-one] | > 10 |
| COc1ccc2nc3n(c(=O)c2c1)CC[C@@H]1[C@H]3CCCN1C (racemic) [cis-5g, (±)-(4aR,13bR)-10-methoxy-4-methyl-1,2,3,4,4a,5,6,13b-octahydro-8H-[1,6]naphthyridino[5,6-b]quinazolin-8-one] | > 10 |
| COc1cc2nc3n(c(=O)c2cc1Cl)CC[C@@H]1[C@H]3CCCN1C (racemic) [cis-5gg, (±)-(4aR,13bR)-10-chloro-11-methoxy-4-methyl-1,2,3,4,4a,5,6,13b-octahydro-8H-[1,6]naphthyridino[5,6-b]quinazolin-8-one] | 0.1 to 1 |
| Cc1ccc2nc3n(c(=O)c2c1)CC[C@@H]1[C@H]3CCCN1C (racemic) [cis-5h, (±)-(4aR,13bR)-4,10-dimethyl-1,2,3,4,4a,5,6,13b-octahydro-8H-[1,6]naphthyridino[5,6-b]quinazolin-8-one] | 1 to 10 |

| SMILES | EC50 [µM] |
| --- | --- |
| CN1CC[C@H]2c3nc4ccc(Cl)cc4c(=O)n3CC[C@H]21 (racemic) [cis-5hh, (±)-(3aR,12bR)-9-chloro-3-methyl-2,3,3a,4,5,12b-hexahydropyrrolo[3′,2′:3,4]pyrido[2,1-b]quinazolin-7(1H)-one] | > 10 |
| CN1CCC[C@H]2c3nc4ccc(C#N)cc4c(=O)n3CC[C@H]21 (racemic) [cis-5i, (±)-(4aR,13bR)-4-methyl-8-oxo-2,3,4,4a,5,6,8,13b-octahydro-1H-[1,6]naphthyridino[5,6-b]quinazoline-10-carbonitrile] | 1 to 10 |
| CN1CCC[C@H]2c3nc4ccc(C(F)(F)F)cc4c(=O)n3CC[C@H]21 (racemic) [cis-5j, (±)-(4aR,13bR)-4-methyl-10-(trifluoromethyl)-1,2,3,4,4a,5,6,13b-octahydro-8H-[1,6]naphthyridino[5,6-b]quinazolin-8-one] | 0.1 to 1 |
| CN1CCC[C@H]2c3nc4cc(Cl)ccc4c(=O)n3CC[C@H]21 (racemic) [cis-5k, (±)-(4aR,13bR)-11-chloro-4-methyl-1,2,3,4,4a,5,6,13b-octahydro-8H-[1,6]naphthyridino[5,6-b]quinazolin-8-one] | > 10 |
| CN1CCC[C@H]2c3nc4cc(Br)ccc4c(=O)n3CC[C@H]21 (racemic) [cis-5l, (±)-(4aR,13bR)-11-bromo-4-methyl-1,2,3,4,4a,5,6,13b-octahydro-8H-[1,6]naphthyridino[5,6-b]quinazolin-8-one] | 1 to 10 |
| CN1CCC[C@H]2c3nc4cc(F)ccc4c(=O)n3CC[C@H]21 (racemic) [cis-5m, (±)-(4aR,13bR)-11-fluoro-4-methyl-1,2,3,4,4a,5,6,13b-octahydro-8H-[1,6]naphthyridino[5,6-b]quinazolin-8-one] | > 10 |
| CN1CCC[C@H]2c3nc4cc(C(F)(F)F)ccc4c(=O)n3CC[C@H]21 (racemic) [cis-5n, (±)-(4aR,13bR)-4-methyl-11-(trifluoromethyl)-1,2,3,4,4a,5,6,13b-octahydro-8H-[1,6]naphthyridino[5,6-b]quinazolin-8-one] | 1 to 10 |
| CN1CCC[C@H]2c3nc4cnccc4c(=O)n3CC[C@H]21 (racemic) [cis-5p, (±)-(4aR,13bR)-4-methyl-1,2,3,4,4a,5,6,13b-octahydro-8H-pyrido[3′,4′:4,5]pyrimido[2,1-f][1,6]naphthyridin-8-one] | > 10 |
| CN1CCC[C@H]2c3nc4cc(Cl)c(Cl)cc4c(=O)n3CC[C@H]21 (racemic) [cis-5q, (±)-(4aR,13bR)-10,11-dichloro-4-methyl-1,2,3,4,4a,5,6,13b-octahydro-8H-[1,6]naphthyridino[5,6-b]quinazolin-8-one] | 0.1 to 1 |
| COc1cc2nc3n(c(=O)c2cc1OC)CC[C@@H]1[C@H]3CCCN1C (racemic) [cis-5r, (±)-(4aR,13bR)-10,11-dimethoxy-4-methyl-1,2,3,4,4a,5,6,13b-octahydro-8H-[1,6]naphthyridino[5,6-b]quinazolin-8-one] | > 10 |
| CN1CCC[C@H]2c3nc4cc(Cl)c(C(F)(F)F)cc4c(=O)n3CC[C@H]21 (racemic) [cis-5s, (±)-(4aR,13bR)-11-chloro-4-methyl-10-(trifluoromethyl)-1,2,3,4,4a,5,6,13b-octahydro-8H-[1,6]naphthyridino[5,6-b]quinazolin-8-one] | 0.1 to 1 |
| COc1cc(Cl)cc2c(=O)n3c(nc12)[C@@H]1CCCN(C)[C@@H]1CC3 (racemic) [cis-5t, (±)-(4aR,13bR)-10-chloro-12-methoxy-4-methyl-1,2,3,4,4a,5,6,13b-octahydro-8H-[1,6]naphthyridino[5,6-b]quinazolin-8-one] | > 10 |
| CN1CCO[C@H]2c3nc4ccccc4c(=O)n3CC[C@H]21 (racemic) [cis-5v, (±)-(4aR,13bR)-4-methyl-3,4,4a,5,6,13b-hexahydro-[1,4]oxazino[2′,3′:3,4]pyrido[2,1-b]quinazolin-8(2H)-one] | > 10 |
| CN1CCO[C@H]2c3nc4ccc(Cl)cc4c(=O)n3CC[C@H]21 (racemic) [cis-5w, (±)-(4aR,13bR)-10-chloro-4-methyl-3,4,4a,5,6,13b-hexahydro-[1,4]oxazino[2′,3′:3,4]pyrido[2,1-b]quinazolin-8(2H)-one] | > 10 |
| CN1CCO[C@H]2c3nc4ccc(C(F)(F)F)cc4c(=O)n3CC[C@H]21 (racemic) [cis-5x, (±)-(4aR,13bR)-4-methyl-10-(trifluoromethyl)-3,4,4a,5,6,13b-hexahydro-[1,4]oxazino[2′,3′:3,4]pyrido[2,1-b]quinazolin-8(2H)-one] | > 10 |
